Measurements published in ChEMBL document CHEMBL1157471, “Dopamine/serotonin receptor ligands. Part 17: a cross-target SAR approach: affinities of azecine-styled ligands for 5-HT(2A) versus D1 and D2 receptors” (Bioorg Med Chem Lett, 2008).

What was measured:
[1] = molecular target: 5-hydroxytryptamine receptor 2A (Sus scrofa) (UniProt P50129); assay: (§1) Antagonist activity at serotonin 5HT2A receptor assessed as effect on 5HT-induced isometric contractile force in isolated rings of pig coronary artery; format: functional, tissue-based
5-hydroxytryptamine receptor 2A (Sus scrofa), sequence (P50129 whole entry): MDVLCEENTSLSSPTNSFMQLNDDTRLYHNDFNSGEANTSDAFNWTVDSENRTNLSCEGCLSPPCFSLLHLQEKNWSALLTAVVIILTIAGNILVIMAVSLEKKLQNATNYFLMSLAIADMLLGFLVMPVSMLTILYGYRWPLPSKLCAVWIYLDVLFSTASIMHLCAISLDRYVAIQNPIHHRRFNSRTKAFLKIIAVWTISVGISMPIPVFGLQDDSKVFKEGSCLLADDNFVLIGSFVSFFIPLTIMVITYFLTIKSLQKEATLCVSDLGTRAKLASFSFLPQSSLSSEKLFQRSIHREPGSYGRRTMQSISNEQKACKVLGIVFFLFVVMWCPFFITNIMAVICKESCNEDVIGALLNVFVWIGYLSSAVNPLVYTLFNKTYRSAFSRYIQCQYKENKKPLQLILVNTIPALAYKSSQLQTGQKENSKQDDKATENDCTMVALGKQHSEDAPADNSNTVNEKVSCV

D(1A) dopamine receptor = D(1A) dopamine receptor (Homo sapiens, UniProt P21728); assay: Displacement […] from human cloned dopamine D1 receptor
D(1A) dopamine receptor, sequence (P21728 whole entry): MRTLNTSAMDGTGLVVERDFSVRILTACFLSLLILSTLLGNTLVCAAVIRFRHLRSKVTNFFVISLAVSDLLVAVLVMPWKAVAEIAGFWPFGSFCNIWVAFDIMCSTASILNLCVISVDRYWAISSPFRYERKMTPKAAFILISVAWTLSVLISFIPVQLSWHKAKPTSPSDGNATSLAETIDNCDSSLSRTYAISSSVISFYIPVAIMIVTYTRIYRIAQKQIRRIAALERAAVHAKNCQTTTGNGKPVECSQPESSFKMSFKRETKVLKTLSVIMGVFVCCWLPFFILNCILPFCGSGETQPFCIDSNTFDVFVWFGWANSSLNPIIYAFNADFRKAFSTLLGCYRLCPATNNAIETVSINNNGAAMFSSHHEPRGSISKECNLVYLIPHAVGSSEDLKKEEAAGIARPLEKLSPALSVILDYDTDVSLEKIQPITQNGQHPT

D(2) dopamine receptor = D(2) dopamine receptor (Homo sapiens, UniProt P14416); assay: Displacement […] from human cloned dopamine D2L receptor
D(2) dopamine receptor, sequence (P14416 whole entry): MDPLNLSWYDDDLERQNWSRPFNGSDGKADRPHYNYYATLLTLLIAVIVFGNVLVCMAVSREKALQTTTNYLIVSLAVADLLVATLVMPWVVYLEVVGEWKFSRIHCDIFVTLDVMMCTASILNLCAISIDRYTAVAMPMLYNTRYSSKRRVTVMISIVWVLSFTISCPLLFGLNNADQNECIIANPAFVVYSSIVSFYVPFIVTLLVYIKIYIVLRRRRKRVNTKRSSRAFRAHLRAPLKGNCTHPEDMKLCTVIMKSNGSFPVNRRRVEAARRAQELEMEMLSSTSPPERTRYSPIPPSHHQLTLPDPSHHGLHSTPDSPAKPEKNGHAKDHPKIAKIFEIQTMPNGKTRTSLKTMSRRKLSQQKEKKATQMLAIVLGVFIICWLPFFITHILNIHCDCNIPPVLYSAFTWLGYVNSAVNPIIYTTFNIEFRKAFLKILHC

[2] = molecular target: 5-hydroxytryptamine receptor 2A (Sus scrofa, UniProt P50129); assay: as §1; format: functional, tissue-based; conditions: read-out: pA2 (converted)
5-hydroxytryptamine receptor 2A, sequence (P50129 whole entry): as the sequence (P50129 whole entry) above

| Ki (D(1A) dopamine receptor) | Ki (D(2) dopamine receptor) | Kb [2] | Compound | pD2 [1] |
| --- | --- | --- | --- | --- |
| – | – | 1.32 nM | O=C(c1ccc(F)cc1)C1CCN(CCn2c(=O)[nH]c3ccccc3c2=O)CC1 [KETANSERIN] | – |
| 28.2 nM | 24.5 nM | 5.75 nM | COc1ccc2c(c1)CCCN(C)CCc1ccccc1C2 | – |
| 21.9 nM | – | 3.39 nM | COc1ccc2c(c1)CCN(C)CCCc1ccccc1C2 | – |
| 3.72 nM | 77.6 nM | 3.98 nM | CCN1CCc2ccccc2Cc2ccc(O)cc2CC1 | – |
| – | – | 0.646 nM | CN1CCc2ccccc2Cc2ccc(O)cc2CC1 | – |
| 22.9 nM | – | 2.04 nM | COc1ccc2c(c1)CCN(C)CCc1ccccc1C2 | – |
| 0.813 nM | 3.55 nM | 0.891 nM | CN1CCc2ccccc2Cc2ccc(O)c(Cl)c2CC1 | – |
| 63.1 nM | 389 nM | 61.7 nM | Oc1ccc2c(c1)CCNCCc1ccccc1C2 | – |
| 2.67 nM | 41.7 nM | 2.14 nM | CN1CCCc2ccccc2Cc2ccc(O)cc2CC1 | – |
| 158 nM | 115 nM | 3.8 nM | CN1CCCc2c([nH]c3ccccc23)Cc2ccccc2CC1 | – |

| Compound | Ki (D(1A) dopamine receptor) | Ki (D(2) dopamine receptor) | Kb [2] | pD2 [1] |
| --- | --- | --- | --- | --- |
| CN1CCc2ccccc2Cc2[nH]c3ccccc3c2CC1 | 1.86 nM | 41.7 nM | – | 9.79 |
| CN1CCc2ccccc2Cc2[nH]c3ccc(O)cc3c2CC1 | – | 43.7 nM | – | 9.97 |
| CN1CCCc2ccccc2Cc2[nH]c3ccccc3c2CC1 | 2.04 nM | 13.5 nM | – | 9.77 |
